In data set [1] the test system is Rattus norvegicus. Briefly: Antiinflammatory activity in carrageenan induced rat at assessed as reduction in paw edema 50 mg/kg, ip measured after […] relative to control. In kind it is functional. The arrangement: scale not given: the % may be the effect or the level left.
In data set [2] the target is Histamine H2 receptor (Homo sapiens) (UniProt P25021). Put plainly: Inhibition of histamine h2 (unknown origin).
Data set [3] is filed under the species Oryctolagus cuniculus. Put plainly: Antihypertensive activity in rabbit aorta assessed as vasodilation. The data set is classed as functional.
Data set [4] can be described thus: Therapeutic index, ratio of IC50 for antiviral activity against HIV infected in human H9 cells to EC50 for antiviral activity against HIV infected in human H9 cells. The data set is classed as toxicity, cell-based. The note with it: human immunodeficiency virus, H9 cells infected with HIV; read-out: Ratio IC50/EC50.
Data set [5] has as its system Human immunodeficiency virus. Put plainly: Antiviral activity against HIV infected in human H9 cells. In kind it is functional, organism-based. The conditions noted are these: Human immunodeficiency virus 1, H9.
A short description of data set [6]: Inhibition of HCV RNA IRES IIa by FRET assay. The arrangement: species or system Hepacivirus hominis.
The test system of data set [7] is Mus musculus. Briefly: Analgesic activity in phenylbenzoquinone induced mouse assessed as reduction in writhing at 10 mg/kg, po measured after 1 hrs by writhing test relative to control. In kind it is functional. (In general: Writhing tests count abdominal constrictions after an irritant is injected.)
Data set [8] concerns Mus musculus. Briefly: Analgesic activity in acetic acid peritonitis induced mouse assessed as reduction in writhing at 10 mg/kg, po measured after 1 hrs by writhing test relative to control. The data set is classed as functional.
For data set [9], the system named is MDA-MB-231. Briefly: Anticancer activity against human MDA-MB-231 cells assessed as cell growth inhibition incubated for 24 hrs by MTT assay. In kind it is functional, cell-based. The conditions noted are these: MDA-MB-231, 24 h.
The test system of data set [10] is HeLa. Put plainly: Anticancer activity against human HeLa cells assessed as cell growth inhibition incubated for 24 hrs by MTT assay. In kind it is functional, cell-based. (Formazan colour is commonly taken as a measure of viable cells.)
Data set [11] relates to RXF 393. Briefly: Anticancer activity against human RXF 393 cell assessed as cell growth inhibition measured after 24 hrs by SRB assay. In kind it is functional. In general terms: Sulforhodamine B stains cellular protein and so reports cell mass.
For data set [12], the system named is SR. Put plainly: Anticancer activity against human SR cell assessed as cell growth inhibition measured after 24 hrs by SRB assay. The data set is classed as functional.
Data set [13] has as its system K562. Put plainly: Anticancer activity against human K562 cell assessed as cell growth inhibition measured after 24 hrs by SRB assay. In kind it is functional.
The subject of data set [14] is UO-31. Put plainly: Anticancer activity against human UO-31 cell assessed as cell growth inhibition measured after 24 hrs by SRB assay. The data set is classed as functional.
Data set [15] deals with MOLT-4. Put plainly: Anticancer activity against human MOLT-4 cell assessed as cell growth inhibition measured after 24 hrs by SRB assay. In kind it is functional.
Data set [16] in a line: Anticancer activity against human CNS cell assessed as cell growth inhibition measured after 24 hrs by SRB assay. In kind it is functional.
Data set [17] deals with A549. Put plainly: Anticancer activity against human A549 cell assessed as cell growth inhibition measured after 24 hrs by SRB assay. In kind it is functional.
Data set [18] relates to Cytomegalovirus. Briefly: Antiviral activity against Cytomegalovirus. The note with it: Human betaherpesvirus 5.
Data set [19] deals with Mus musculus. Briefly: Sedative activity in mouse assessed as sleeping time at 300 mg/kg, ip. The data set is classed as functional.
In data set [20] the test system is MCF7. Briefly: Cell cycle arrest in human MCF7 cells assessed as reduction in G2/M phase at 10 uM G2/M phase incubated for 24 hrs relative to control. The data set is classed as functional.
In data set [21] the test system is CA46. Put plainly: Cell cycle arrest in human CA46 cells assessed as reduction in G2/M phase at 10 uM incubated for 24 hrs relative to control. In kind it is functional.
Data set [22] relates to MCF7. Put plainly: Anticancer activity against human MCF7 cell assessed as cell growth inhibition measured after 48 hrs by SRB assay. In kind it is functional, cell-based. The conditions noted are these: MCF7, 48 h.
Data set [23] concerns the target Tubulin. Briefly: Inhibition of tubulin polymerization (unknown origin) incubated for 15 mins followed by GTP addition and measured for 20 mins by spectrophotometry. The data set is classed as protein-complex assay, Homo sapiens.
In data set [24] the test system is Mus musculus. Put plainly: Sedative activity in mouse assessed as sleeping time at 30 mg/kg, ip. In kind it is functional.
Data set [25] concerns Mus musculus. Briefly: Sedative activity in mouse assessed as sleeping time at 100 mg/kg, ip. In kind it is functional.
Data set [26] relates to Oryctolagus cuniculus. Briefly: Antihypertensive activity in po dosed rabbit assessed as decrease in 30mmhg of systolic blood pressure measured after 4 to 6 hrs. The conditions noted are these: time 4-6 hrs. The data set is classed as functional.
For data set [27], the system named is Rattus norvegicus. Put plainly: Antiinflammatory activity in rat at assessed as reduction in paw edema relative to control. In kind it is functional.

Data on 20 compounds can be found in ChEMBL document CHEMBL5260833, “An overview of quinazolines: Pharmacological significance and recent developments” (Eur J Med Chem, 2018).

SMILES strings stand for the structures.

Chain of Histamine H2 receptor (Homo sapiens) (P25021 whole entry): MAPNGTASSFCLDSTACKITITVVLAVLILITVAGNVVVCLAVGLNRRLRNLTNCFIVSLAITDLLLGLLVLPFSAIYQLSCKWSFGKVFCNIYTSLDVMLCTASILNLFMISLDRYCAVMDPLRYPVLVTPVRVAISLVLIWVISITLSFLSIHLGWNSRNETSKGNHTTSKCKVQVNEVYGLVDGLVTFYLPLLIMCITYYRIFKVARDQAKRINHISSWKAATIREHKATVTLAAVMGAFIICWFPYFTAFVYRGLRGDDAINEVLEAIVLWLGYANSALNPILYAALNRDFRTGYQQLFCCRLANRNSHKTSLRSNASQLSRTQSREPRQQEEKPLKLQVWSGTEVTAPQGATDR

On to `O=c1c2c(Br)cc(Br)cc2nc(-c2ccccc2)n1-c1nc2ccccc2s1`, for which the Activity in data set [1] came out at 21.3%.
By ED50 is commonly meant the dose at which the effect has come halfway, by size or by number of responders. As usually defined, the pKb is the Kb on a negative log10 scale, so that one unit is a factor of ten. In [2], `CNC(=C[N+](=O)[O-])NCCSCc1ccc(CN(C)C)o1` came in with an ED50 of 12.3 mg/kg and a pKb of 7.06.
`CC(=O)OC1C([N+](=O)[O-])c2ccc(Cl)cc2C(=O)N1[N+](=O)[O-]` (centres undefined): the pD2 in data set [3] was 5.4.
The EC50 is the concentration that produces a half-maximal response. Usually IC50 stands for the point on the concentration scale where inhibition reaches its midpoint. On to `COc1cc2nc(-c3ccc4ccccc4c3)nc(O)c2cc1OC`, for which the selectivity ratio in data set [4] came to 13.2. In [5], the midpoint of the response, the EC50, lay at 7.59 µM and the IC50 was 100 µM.
Take `NC1=Nc2ccccc2C2(CC2)N1`: in data set [6], the response was half-maximal at 100 µM (EC50).
Regarding `O=c1c2ccccc2nc(-c2ccccc2)n1-c1nc2ccccc2s1`, in [1], the Activity stood at 30.3%.
A word on the inhibition in vivo: it is the drop in the measured response relative to a control, in per cent. With `CC(=O)Oc1ccccc1C(=O)O` [ASPIRIN], the inhibition in vivo at 10 mg/kg in data set [7] is 20%; in data set [8], 60%.
For the compound `COc1cccc2c(=O)n(Cc3ccccc3)c(SCCN3CCOCC3)nc12`, the half-maximal inhibitory concentration (IC50) in data set [9] and in data set [10] was 1.85 µM throughout.
Turning to `Cc1ccc2nc(SCCCN3C(=O)c4ccccc4C3=O)n(Cc3ccccc3)c(=O)c2c1`, the IC50 in data set [9] and in data set [10] was 1.85 µM throughout.
Usually GI50 stands for the concentration giving 50% growth inhibition. Regarding `O=c1[nH]cc(F)c(=O)[nH]1` [FLUOROURACIL], the GI50 in [11] was 55 µM; in data set [12] it was 1.62 µM; in [13] it was 0.407 µM; in data set [14], 6.76 µM; in data set [15] it was 17 µM; in data set [16], 42.7 µM. Moreover, the GI50 in data set [17] was 1.05 µM.
In [18], `Nc1nc2c(ncn2COC(CO)CO)c(=O)[nH]1` [GANCICLOVIR] returned an EC50 of 2.6 µM.
`CC1(C)NC(N)=Nc2ccccc21` showed an EC50 in data set [6] of 420 µM.
Consider `O=c1c2ccccc2nc(-c2cccnc2)n1-c1ccccc1F`, for which the Time in data set [19] was 395.5 min.
A word on the inhibition: it is the percentage by which the read-out fell short of the control. Turning to `O=c1c2cc(Cl)ccc2nc(/C=C/c2ccccc2)n1-c1ncccn1`, the inhibition at 10 µM in data set [20] is 20%; in data set [21], 66%. The IC50 in data set [22] is 0.31 µM; in data set [23] it was 5.98 µM.
Take `O=c1c2ccccc2nc(-c2ccncc2)n1-c1ccccc1F`: the Time was 3.5 min in [24], 111.2 min in data set [25] and 699.7 min in data set [19].
Regarding `CCOC(=O)c1c(C)cc2nc(COC(=O)NC(C)C)n(-c3ccccc3Cl)c(=O)c2c1C`, in data set [26], the ED30 worked out at 0.42 mg/kg.
Turning to `CCOC(=O)c1c(C)cc2nc(COC(=O)NC)n(-c3ccccc3Cl)c(=O)c2c1C`, in data set [26], the ED30 was determined as 2.8 mg/kg.
Consider `CCNC(=O)OCc1nc2cc(C)c(C(=O)OCC)c(C)c2c(=O)n1-c1ccccc1Cl`, for which the ED30 in data set [26] came out at 0.35 mg/kg.
Consider `CCCCC1C(=O)N(c2ccccc2)N(c2ccccc2)C1=O` [PHENYLBUTAZONE], for which the inhibition in vivo at 10 mg/kg in [7] was 25%; in data set [8], 11%. The “inhibition (INH)” value in data set [27] came out at 38.9%.
For the compound `Clc1cccc(Cl)c1NC1=NCCN1` [CLONIDINE], in data set [26], the ED30 turned out to be 0.065 mg/kg.
